{
  "source": "patent US6080780A",
  "about": "“Use of nitroflavonoids for the treatment of anxiety” (University of Strathclyde, priority 1995, dated 2000)",
  "key": {"[1]": {"test_system": "GABAλ receptors", "assay": "[3H]-muscimol binding", "settings": "20 μM; data not shown", "experimental": "(§1) Additional binding studies were performed as described elsewhere: [^3 ]-prazosin binding for α1 adrenergic receptors (Medina et al., 1984), [^3 H]-dihidroalprenolol binding for β adrenergic receptors (Medina et al. 1984), [^3 H]-quinuclinidyl benzylate binding for muscarinic cholinergic receptors (Jerusalinksy et al., 1983), [^3 H]-muscimol binding for GABAλ receptors (Medina et al., 1983) and [^3 H]-8-Hydroxydipropylaminotetralin ([^3 H]--OH--DPAT) binding for serotonin (5-HTlλ) receptors (Nenonene et al., 1984)."}, "[2]": {"test_system": "mice", "assay": "Sodium thiopental-induced sleeping time", "type": "in vivo", "settings": "for Sleeping Time / Latency: median (interquartile range); for Sleeping Time: VEH 190; for Latency: VEH 233", "experimental": "(§2) Sodium thiopental (Abbott) (22 mg/kg) was i.p. injected 15 min after vehicle or DNF. The disappearance and reappearance of the righting reflex were considered indications of latency and duration of sleep, respectively (Anca et al., 1993).\n(§3) Mice were injected with sodium thiopental (TP, 22 mg/kg i.p.) 15 min after vehicle (VEH) or 6,3'-dinitroflavone (DNF). The ceiling of sleeping time was 1800 s. Data are expressed in medians (interquartile range). ^3 number of animals per group."}, "[3]": {"assay": "Sodium thiopental-induced sleeping time", "type": "in vivo, mice", "settings": "mouse, in vivo; thiopental sleep, locomotor activity and holeboard together; read-out: doses with slight depressant action relative to anxiolytic doses", "experimental": "as §2, §3"}, "[4]": {"test_system": "muscarinic cholinergic receptors", "type": "binding", "settings": "20 μM; data not shown"}, "[5]": {"test_system": "α1 adrenergic receptors", "assay": "[3H]-prazosin binding", "settings": "20 μM; data not shown", "experimental": "as §1"}, "[6]": {"biological_target": "central benzodiazepine receptors", "assay": "Autoradiographic [3H]-FNZ displacement on rat brain sections", "type": "binding, rat (Wistar)", "settings": "for Ki: n=3, read-out: Ki, [3H]-FNZ binding, autoradiography", "experimental": "Wistar rats were decapitated and brains rapidly removed. Sagittal sections (15 μm in thickness) were prepared at -20° C. using a microtome-cryostat. The tissue slices were kept frozen at -70° C. until used. For DNF displacement curves to [^3 H]--FNZ binding (0.65 nM), tissue sections were incubated for 60 min at 4° C. in 25 mM Tris HCl buffer, pH 7.4, in presence of different concentrations of DNF (1-600 nM). For non-specific binding we used 10 μM FNZ. The incubation was terminated by rinsing the sections for two min in cold buffer. Sections were briefly dipped in cold distilled water and dried rapidly under a stream of cold air (Niddam et al., 1987).\nAutoradiograms were generated by apposing the slide-mounted tissue section to tritium-sensitive film (Hyperfilm Amersham) in a light-proof X-ray cassette at 4° C. for two weeks.\nThe optical densities from different brain regions were converted first to radioactive units and then to fmol/mm^2 using the [^3 H] standards on the film with the aid of a computerized image densitometric analysis system (MCID 4.02). The values were normalized and the Ki values were determined using a computerized program (Graph-Pad Prism) Bernabeu et al., 1995; Cammarota et al., 1995)."}, "[7]": {"biological_target": "central benzodiazepine receptor", "assay": "[3H]-FNZ binding to crude synaptosomal membranes from rat CNS regions", "set-up": "species or system rat (Wistar)", "settings": "read-out: Ki, [3H]-FNZ binding", "experimental": "Adult male Wistar rats weighing 250 g were used for biochemical experiments. Adult male Swiss male weighing 25-30 g were used for pharmacological assays except for inhibitory avoidance and tail flick tests were done in rats. Animals were housed in a controlled environment, with free access to food and water and maintained on a 12 h/12 h day/night cycle.\nDisplacement curves were performed using [^3 ]-FNZ or [^3 H]-zolpidem ([^3 H]-ZOLP) as radioligands in washed crude synaptosomal membranes from rat cerebral cortex, cerebellum, hippocampus, striatum or spinal cord. Membrane preparations were carried out according to Medina et al. (1990). Briefly, brains were rapidly dissected out on ice and the different structures were homogenized in 10 volumes of 0.32 M sucrose and centrifuged at 900×g for 10 min. The resulting supernatant was centrifuged at 100,000×g for 30 min and the pellet washed twice in 25 mM Tris HCl buffer pH 7.4 at 100,000×g for 30 min, and stored at -20° C. until used.\nFor [^3 H]-FNZ (84 Ci/mmol, NEN) displacement curves, different concentrations of DNF (0.3 nM to 1 μM) were added to 0.3 mg membrane protein suspended in 1 ml of 25 mM Tris HCl buffer in presence of 0.6 nM of the radioligand. Protein determination was carried out by using the method of Lowry et al. (1951). Nonspecific binding (<5%) was determined in parallel incubations with 10 μM FNZ (Hoffmann-La Roche). The incubation was carried out at 4° C. for 2 h. The assays were determined by filtration under vacuum through Whatman GF/A glass fiber filters, and two washes with 3 ml each of incubation medium. Filters were dried and counted after the addition of 5 ml 2,5-diphenyl-oxazole (PPO)-xylene as scintillation fluid."}, "[8]": {"test_system": "benzodiazepine (BDZ-R) receptor", "assay": "3H-Flunitrazepam binding to extensively washed bovine cerebral cortical membranes", "experimental": "Non-specific nitration of the flavone nucleus yielded the two nitrated flavone (II) and (IIa). […] Briefly, ^3 H-FNZ binding was carried out as described by Levy de Stein, M., Medina, J. H., De Robertis E., Mol. Brain Res. 1985, 5, 9-15. In brief, for each assay, triplicate samples of the membranes, containing 0.2 to 0.4 mg protein were suspended in a final volume of 1 mL of 0.25 mM Tris-HCl buffer, pH 7.3. The incubation was carried out at 4° C. for 60 minutes with 0.6 nM ^3 -FNZ. To study the binding saturation, a range of 0.3 to 10 nM ^3 H-FNZ was used. Non-specific binding was determined in parallel incubations in the presence of 3 μM FNZ, and represented 5-15% of total. The assays were terminated by filtration under vacuum though Whatman GF/A glass-fiber filters, and three washes with 3 mL each of incubation medium. Filters were dried and counted after the addition of 5 mL of 2,5-diphenyloxazole/xylene as scintillation fluid. Bovine cerebral cortical membranes were treated substantially following the method of Medina, J. H., De Robertis, E. J., J. Neurochem. 1985, 44, 1340-1345."}},
  "note": "Where two headings read alike, the source gives them in different places.",
  "data": [
    {"smiles": "O=c1cc(-c2cccc([N+](=O)[O-])c2)oc2ccc([N+](=O)[O-])cc12", "note": "[Compound (II), 6,3'-dinitroflavone]", "values": [
      {"measurement": "displacement of [3H]-muscimol binding", "setting": "[1]", "value": "did not displace"},
      {"measurement": "latency or sleeping time (in words)", "setting": "[2]; 1 mg/kg", "value": "did not change the latency or the sleeping time"},
      {"measurement": "Sleeping Time", "setting": "[2]; DNF 1 mg/kg + TP 22 mg/kg, n=7", "value": "207 (20/600) s"},
      {"measurement": "Latency", "setting": "[2]; DNF 1 mg/kg + TP 22 mg/kg, n=7", "value": "230 (164/300) s"},
      {"measurement": "Latency", "setting": "[2]; DNF 3 mg/kg + TP 22 mg/kg, n=12", "value": "237 (202/293) s"},
      {"measurement": "Sleeping Time", "setting": "[2]; DNF 3 mg/kg + TP 22 mg/kg, n=12, p<0.05", "value": "1277 (248/1800) s"},
      {"measurement": "latency to sleep (in words)", "setting": "[2]; i.p., 3 mg/kg", "value": "No changes were observed in latency to sleep"},
      {"measurement": "sleeping time (in words)", "setting": "[2]; i.p., 3 mg/kg, p<0.05", "value": "augmented the sleeping time"},
      {"measurement": "selectivity ratio", "setting": "[3]", "value": "100 to 300"},
      {"measurement": "displacement of [3H]-quinuclidinyl benzilate binding", "setting": "[4]", "value": "did not displace"},
      {"measurement": "displacement of [3H]-prazosin binding", "setting": "[5]", "value": "did not displace"},
      {"measurement": "Ki", "setting": "[6]; dentate gyrus", "value": "82.2 ± 7.6", "unit": "nM"},
      {"measurement": "Ki", "setting": "[6]; parietal cortex", "value": "30.1 ± 2.6", "unit": "nM"},
      {"measurement": "potency to displace [3H]-FNZ, cerebellum vs dentate gyrus", "setting": "[6]; ratio", "value": 5, "unit": "times"},
      {"measurement": "Ki", "setting": "[6]; striatum", "value": "53.7 ± 7.3", "unit": "nM"},
      {"measurement": "Ki", "setting": "[7]; rat cerebral cortex", "value": "25.9 ± 3.1", "unit": "nM"},
      {"measurement": "Ki", "setting": "[7]; rat hippocampus", "value": "36.1 ± 5", "unit": "nM"},
      {"measurement": "Ki", "setting": "[7]; rat spinal cord", "value": "48.1 ± 5.5", "unit": "nM"},
      {"measurement": "Ki", "setting": "[7]; rat striatum and spinal cord (range over both)", "value": "44 to 48", "unit": "nM"},
      {"measurement": "Ki", "setting": "[7]; rat striatum", "value": "44.1 ± 4.9", "unit": "nM"},
      {"measurement": "Scatchard analysis of saturation curves (type of interaction)", "setting": "[8]; bovine membranes, compound (II) 20 nM (FIG. 1)", "value": "competitive interaction showing a decline in the apparent affinity without changes in the maximal number of sites (Bmax)"},
      {"measurement": "Ki", "setting": "[8]; read-out: Ki, inhibition of 3H-FNZ binding, bovine cerebral cortical membranes, 0.6 nM 3H-FNZ, 4° C., 60 min, n=7", "value": "12 ± 1.7", "unit": "nM"}
    ]}
  ]
}
